Assays:
Type in all cases: functional
Streptococcus pneumoniae [1] = assay: Antibacterial activity against […] resistance selected Streptococcus pneumoniae 3676 with PDF R135C mutation after 10 antibiotic-free subcultures by macrodilution method
Streptococcus pneumoniae [2] = assay: Antibacterial activity against gatifloxacin resistance selected Streptococcus pneumoniae 3009 after 10 antibiotic-free subcultures by macrodilution method
Streptococcus pneumoniae [3] = assay: Antibacterial activity against Streptococcus pneumoniae 1076 by macrodilution method
Streptococcus pneumoniae [4] = assay: Antibacterial activity against gatifloxacin resistance selected Streptococcus pneumoniae 1076 with ParC S79Y mutation after 10 antibiotic-free subcultures by macrodilution method
Streptococcus pneumoniae [5] = assay: Antibacterial activity against clarithromycin resistance selected Streptococcus pneumoniae 3009 after 10 antibiotic-free subcultures by macrodilution method
Streptococcus pneumoniae [6] = assay: Antibacterial activity against moxifloxacin resistance selected Streptococcus pneumoniae 3665 with GyrA S81Y mutation after 10 antibiotic-free subcultures by macrodilution method
Streptococcus pneumoniae [7] = assay: Antibacterial activity against Streptococcus pneumoniae 3676 by macrodilution method
Streptococcus pneumoniae [8] = assay: Antibacterial activity against Streptococcus pneumoniae 3009 by macrodilution method
Streptococcus pneumoniae [9] = assay: Antibacterial activity against moxifloxacin resistance selected Streptococcus pneumoniae 19 with GyrA S81F mutation after 10 antibiotic-free subcultures by macrodilution method
Streptococcus pneumoniae [10] = assay: Antibacterial activity against Streptococcus pneumoniae 3243 by macrodilution method
Streptococcus pneumoniae [11] = assay: Antibacterial activity against Streptococcus pneumoniae assessed as period of suppression of bacterial growth
Streptococcus pneumoniae [12] = assay: Antibacterial activity against Streptococcus pneumoniae 19 by macrodilution method
Streptococcus pneumoniae [13] = assay: Antibacterial activity against […] resistance selected Streptococcus pneumoniae 1077 with PDF D176N mutation after 10 antibiotic-free subcultures by macrodilution method
Streptococcus pneumoniae [14] = assay: Antibacterial activity against […] resistance selected Streptococcus pneumoniae 3665 with after 27 passages by macrodilution method
Streptococcus pneumoniae [15] = assay: Antibacterial activity against azithromycin resistance selected Streptococcus pneumoniae 1077 with 23S rRNA A2058G mutation after 10 antibiotic-free subcultures by macrodilution method
Streptococcus pneumoniae [16] = assay: Antibacterial activity against Streptococcus pneumoniae 3665 by macrodilution method
Streptococcus pneumoniae [17] = assay: Antibacterial activity against levofloxacin resistance selected Streptococcus pneumoniae 19 with GyrA S81Y and ParC D83Y mutation after 10 antibiotic-free subcultures by macrodilution method
Streptococcus pneumoniae [18] = assay: Antibacterial activity against […] resistance selected Streptococcus pneumoniae 3243 with PDF G69C, Q172H mutation after 10 antibiotic-free subcultures by macrodilution method
Streptococcus pneumoniae [19] = assay: Antibacterial activity against […] resistance selected Streptococcus pneumoniae 2527 after 10 antibiotic-free subcultures by macrodilution method
Streptococcus pneumoniae [20] = assay: Antibacterial activity against gatifloxacin resistance selected Streptococcus pneumoniae 37 with GyrA S81Y, GyrB E474K and ParC S79Y mutation after 10 antibiotic-free subcultures by macrodilution method
Streptococcus pneumoniae [21] = assay: Antibacterial activity against Streptococcus pneumoniae 37 by macrodilution method
Streptococcus pneumoniae [22] = assay: Antibacterial activity against moxifloxacin resistance selected Streptococcus pneumoniae 3243 after 10 antibiotic-free subcultures by macrodilution method
Streptococcus pneumoniae [23] = assay: Antibacterial activity against […] resistance selected Streptococcus pneumoniae 2527 after 27 passages by macrodilution method
Streptococcus pneumoniae [24] = assay: Antibacterial activity against […] resistance selected Streptococcus pneumoniae 3665 with after 10 antibiotic-free subcultures by macrodilution method
Streptococcus pneumoniae [25] = assay: Antibacterial activity against […] resistance selected Streptococcus pneumoniae 3243 with PDF G69C, Q172H mutation after 20 passages by macrodilution method
Streptococcus pneumoniae [26] = assay: Antibacterial activity against […] resistance selected Streptococcus pneumoniae 3413 after 14 passages by macrodilution method
Streptococcus pneumoniae [27] = assay: Antibacterial activity against moxifloxacin resistance selected Streptococcus pneumoniae 3676 with GyrA E85G, GyrB S478I and ParC S79Y mutation after 10 antibiotic-free subcultures by macrodilution method
Streptococcus pneumoniae [28] = assay: Antibacterial activity against Streptococcus pneumoniae 1077 by macrodilution method
Streptococcus pneumoniae [29] = assay: Antibacterial activity against […] resistance selected Streptococcus pneumoniae 19 with after 14 passages by macrodilution method
Streptococcus pneumoniae [30] = assay: Antibacterial activity against moxifloxacin resistance selected Streptococcus pneumoniae 1076 with ParC S79Y mutation after 10 antibiotic-free subcultures by macrodilution method
Streptococcus pneumoniae [31] = assay: Antibacterial activity against […] resistance selected Streptococcus pneumoniae 24 with PDF G139F mutation after 27 passages by macrodilution method
Streptococcus pneumoniae [32] = assay: Antibacterial activity against clarithromycin resistance selected Streptococcus pneumoniae 3243 with 23S rRNA A2059T mutation after 10 antibiotic-free subcultures by macrodilution method
Streptococcus pneumoniae [33] = assay: Antibacterial activity against moxifloxacin resistance selected Streptococcus pneumoniae 24 with GyrA S81Y, GyrB P413S and ParC S79F mutation after 10 antibiotic-free subcultures by macrodilution method
Streptococcus pneumoniae [34] = assay: Antibacterial activity against […] resistance selected Streptococcus pneumoniae 3676 with PDF R135C mutation after 20 passages by macrodilution method
Streptococcus pneumoniae [35] = assay: Antibacterial activity against […] resistance selected Streptococcus pneumoniae 1076 with PDF D176N mutation after 10 antibiotic-free subcultures by macrodilution method
Streptococcus pneumoniae [36] = assay: Antibacterial activity against […] resistance selected Streptococcus pneumoniae 37 with PDF G69R, P76R mutation after 10 antibiotic-free subcultures by macrodilution method
Streptococcus pneumoniae [37] = assay: Antibacterial activity against […] resistance selected Streptococcus pneumoniae 1076 with PDF D176N mutation after 39 passages by macrodilution method
Streptococcus pneumoniae [38] = assay: Antibacterial activity against […] resistance selected Streptococcus pneumoniae 1077 with PDF D176N mutation after 24 passages by macrodilution method
Streptococcus pneumoniae [39] = assay: Antibacterial activity against clarithromycin resistance selected Streptococcus pneumoniae 3665 after 10 antibiotic-free subcultures by macrodilution method
Streptococcus pneumoniae [40] = assay: Antibacterial activity against […] resistance selected Streptococcus pneumoniae 3009 with PDF G69V mutation after 10 antibiotic-free subcultures by macrodilution method
Streptococcus pneumoniae [41] = assay: Antibacterial activity against […] resistance selected Streptococcus pneumoniae 3009 with PDF G69V mutation after 14 passages by macrodilution method
Streptococcus pneumoniae [42] = assay: Antibacterial activity against […] resistance selected Streptococcus pneumoniae 24 with PDF G139F mutation after 10 antibiotic-free subcultures by macrodilution method
Streptococcus pneumoniae [43] = assay: Antibacterial activity against clarithromycin resistance selected Streptococcus pneumoniae 3676 after 10 antibiotic-free subcultures by macrodilution method
Streptococcus pneumoniae [44] = assay: Antibacterial activity against moxifloxacin resistance selected Streptococcus pneumoniae 3009 with GyrA S81F and ParC D83N mutation after 10 antibiotic-free subcultures by macrodilution method
Streptococcus pneumoniae [45] = assay: Antibacterial activity against […] resistance selected Streptococcus pneumoniae 37 with PDF G69R, P76R mutation after 50 passages by macrodilution method
Streptococcus pneumoniae [46] = assay: Antibacterial activity against […] resistance selected Streptococcus pneumoniae 19 with after 10 antibiotic-free subcultures by macrodilution method
Streptococcus pneumoniae [47] = assay: Antibacterial activity against azithromycin resistance selected Streptococcus pneumoniae 3243 with L22 insertion 93SFRPRA94 mutation after 10 antibiotic-free subcultures by macrodilution method
Streptococcus pneumoniae [48] = assay: Antibacterial activity against Streptococcus pneumoniae 24 by macrodilution method
Streptococcus pneumoniae [49] = assay: Antibacterial activity against Streptococcus pneumoniae 3413 by macrodilution method
Streptococcus pneumoniae [50] = assay: Antibacterial activity against levofloxacin resistance selected Streptococcus pneumoniae 3009 with GyrA S81Y and ParC S79Y mutation after 10 antibiotic-free subcultures by macrodilution method
Streptococcus pneumoniae [51] = assay: Antibacterial activity against Streptococcus pneumoniae 2527 by macrodilution method
Streptococcus pneumoniae [52] = assay: Antibacterial activity against […] resistance selected Streptococcus pneumoniae 3413 after 10 antibiotic-free subcultures by macrodilution method
Streptococcus pneumoniae [53] = assay: Antibacterial activity against azithromycin resistance selected Streptococcus pneumoniae 2527 after 10 antibiotic-free subcultures by macrodilution method

CCCC[C@H](CN(O)C=O)C(=O)N1CCC[C@H]1C(=O)Nc1ccc(F)c[n+]1[O-]
0.25 µg/mL: MIC (Streptococcus pneumoniae [3]) | MIC (Streptococcus pneumoniae [4]) | MIC (Streptococcus pneumoniae [12]) | MIC (Streptococcus pneumoniae [15]) | MIC (Streptococcus pneumoniae [16]) | MIC (Streptococcus pneumoniae [39]) | MIC (Streptococcus pneumoniae [49]) | MIC (Streptococcus pneumoniae [51])
8 µg/mL: MIC (Streptococcus pneumoniae [37]) | MIC (Streptococcus pneumoniae [38])
16 µg/mL: MIC (Streptococcus pneumoniae [45])
> 16 µg/mL: MIC (Streptococcus pneumoniae [40]) | MIC (Streptococcus pneumoniae [41])
1 h: Post Antibiotic Effe (Streptococcus pneumoniae [11])
0.125 µg/mL: MIC (Streptococcus pneumoniae [7]) | MIC (Streptococcus pneumoniae [27]) | MIC (Streptococcus pneumoniae [30]) | MIC (Streptococcus pneumoniae [33]) | MIC (Streptococcus pneumoniae [43])
4 µg/mL: MIC (Streptococcus pneumoniae [13]) | MIC (Streptococcus pneumoniae [14]) | MIC (Streptococcus pneumoniae [23]) | MIC (Streptococcus pneumoniae [25]) | MIC (Streptococcus pneumoniae [29]) | MIC (Streptococcus pneumoniae [31])
0.03 µg/mL: MIC (Streptococcus pneumoniae [22])
2 µg/mL: MIC (Streptococcus pneumoniae [1]) | MIC (Streptococcus pneumoniae [2]) | MIC (Streptococcus pneumoniae [20]) | MIC (Streptococcus pneumoniae [26]) | MIC (Streptococcus pneumoniae [34]) | MIC (Streptococcus pneumoniae [35]) | MIC (Streptococcus pneumoniae [36]) | MIC (Streptococcus pneumoniae [42]) | MIC (Streptococcus pneumoniae [46])
1 µg/mL: MIC (Streptococcus pneumoniae [5]) | MIC (Streptococcus pneumoniae [8]) | MIC (Streptococcus pneumoniae [17]) | MIC (Streptococcus pneumoniae [18]) | MIC (Streptococcus pneumoniae [21]) | MIC (Streptococcus pneumoniae [24]) | MIC (Streptococcus pneumoniae [52])
0.5 µg/mL: MIC (Streptococcus pneumoniae [6]) | MIC (Streptococcus pneumoniae [9]) | MIC (Streptococcus pneumoniae [10]) | MIC (Streptococcus pneumoniae [19]) | MIC (Streptococcus pneumoniae [28]) | MIC (Streptococcus pneumoniae [32]) | MIC (Streptococcus pneumoniae [44]) | MIC (Streptococcus pneumoniae [47]) | MIC (Streptococcus pneumoniae [48]) | MIC (Streptococcus pneumoniae [50]) | MIC (Streptococcus pneumoniae [53])

Source: ChEMBL document CHEMBL1142186, “Multistep resistance selection and postantibiotic-effect studies of the antipneumococcal activity of LBM415 compared to other agents” (2007)
